Results from patent US20240109873A1, “ANTAGONISTS OF THE MUSCARINIC ACETYLCHOLINE RECEPTOR M4” (Vanderbilt University, priority 2020, published 2024).

Target: T1, human mAChR M1 (Homo sapiens, UniProt P11229)
T1 construct: host or cells: CHO-K1 (ATCC), stably transfected
T1 sequence (P11229 1-460): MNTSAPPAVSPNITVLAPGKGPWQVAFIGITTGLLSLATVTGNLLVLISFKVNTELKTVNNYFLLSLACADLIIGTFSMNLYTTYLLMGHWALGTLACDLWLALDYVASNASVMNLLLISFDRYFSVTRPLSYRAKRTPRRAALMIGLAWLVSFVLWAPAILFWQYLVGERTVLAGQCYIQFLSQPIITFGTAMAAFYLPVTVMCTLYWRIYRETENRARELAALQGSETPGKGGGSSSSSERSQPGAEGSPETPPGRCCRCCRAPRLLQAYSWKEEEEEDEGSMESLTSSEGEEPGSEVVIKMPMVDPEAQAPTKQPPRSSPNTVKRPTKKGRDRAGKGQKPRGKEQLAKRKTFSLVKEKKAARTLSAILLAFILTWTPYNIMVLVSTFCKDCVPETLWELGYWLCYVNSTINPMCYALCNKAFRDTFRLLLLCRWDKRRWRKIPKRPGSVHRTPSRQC
Assay: mAChR M1 cell-based functional assay (calcium flux, antagonism of EC80 acetylcholine response, hM1 CHO-K1 cells)
Conditions: for Human M1 Emin: % ACh maximum at 30 μM; for IC50: decrease of the response elicited by an EC80 concentration of acetylcholine, CHO-K1 cells
Description: hM1 cDNA was purchased from Missouri S&T cDNA Resource and used to stably transfect CHO-K1 cells purchased from the American Type Culture Collection using Lipofectamine2000. hM1 cells were grown in Ham's F-12 medium containing 10% heat-inactivated fetal bovine serum (FBS), 20 mM HEPES, and 50 μg/mL G418 sulfate.
For high throughput measurement of agonist-evoked increases in intracellular calcium, CHO-K1 cells stably expressing muscarinic receptors were plated in growth medium lacking G418 and hygromycin at 15,000 cells/20 μL/well in Greiner 384-well black-walled, tissue culture (TC)-treated, clear-bottom plates (VWR). Cells were incubated overnight at 37° C. and 5% CO2. The next day, cells were washed using an ELX 405 (BioTek) with four washes (80 μL) of assay buffer then aspirated to 20 μL. Next, 20 μL of 16 μM Fluo-4/acetoxymethyl ester (Invitrogen, Carlsbad, CA) prepared as a 2.3 mM stock in DMSO and mixed in a 1:1 ratio with 10% (w/v) Pluronic F-127 and diluted in assay buffer was added to the wells and the cell plates were incubated for 50 min at 37° C. and 5% CO2. Dye was removed by washing with the ELX 405 (four 80 μL washes of assay buffer) then aspirated to 20 μL. Compound master plates were formatted in an 11-point CRC format (1:3 dilutions) in 100% DMSO with a starting concentration of 10 mM using the BRAVO liquid handler (Agilent). Test compound CRCs were then transferred to daughter plates (240 nL) using the Echo acoustic plate reformatter (Labcyte, Sunnyvale, CA) and then diluted into assay buffer (40 μL) to a 2× stock using a Thermo Fisher Combi (Thermo Fisher Scientific, Waltham, MA).
Calcium flux was measured using the Functional Drug Screening System (FDSS) 6000 (Hamamatsu Corporation, Tokyo, Japan) as an increase in the fluorescent static ratio. Compounds were applied to cells (20 μL, 2×) using the automated system of the FDSS 6000 at 4 s into the 300 s protocol and the data were collected at 1 Hz. At 144 s into the 300 s protocol, 10 μL of an EC20 concentration of the muscarinic receptor agonist acetylcholine was added (5×), followed by the addition of 12 μL an EC80 concentration of acetylcholine at the 230 s time point (5×). Agonist activity was analyzed as a concentration-dependent increase in calcium mobilization upon compound addition. Emax values for agonist activity are expressed relative to the maximum for acetylcholine. Positive allosteric modulator activity was analyzed as a concentration-dependent increase in the EC20 acetylcholine response. Antagonist activity was analyzed as a concentration-dependent decrease in the EC80 acetylcholine response; for the purposes of the tables herein, an IC50 (inhibitory concentration 50) was calculated as a concentration-dependent decrease of the response elicited by an EC80 concentration of acetylcholine. […]
The above-described assay was also operated in a second mode where an appropriate fixed concentration of the present compounds were added to the cells after establishment of a fluorescence baseline for about 3 seconds, and the response in cells was measured. 140 s later the appropriate concentration of agonist was added and readings taken for an additional 106 s. Data were reduced as described above and the EC50 values for the agonist in the presence of test compound were determined by nonlinear curve fitting. […]

In the case of [2H]C([2H])([C@@H]1CCOC(C)(C)C1)N1C[C@H]2C[C@H](Nc3ccc(-c4cccnc4C(F)(F)F)nn3)C[C@H]2C1 [Compound 62, (3aR,5s,6aS)-2-(((R)-2,2-dimethyltetrahydro-2H-pyran-4-yl)methyl-d2)-N-(6-(2-(trifluoromethyl)pyridin-3-yl)pyridazin-3-yl)octahydrocyclopenta[c]pyrrol-5-amine], the “Human M1 Emin” value is reported as 6% and the IC50 is reported as 610 nM.

With [2H]C([2H])([C@H]1CCOC(C)(C)C1)N1C[C@H]2C[C@H](Nc3ccc(-c4cccnc4C(F)(F)F)nn3)C[C@H]2C1 (single isomer, unassigned) [Compound 61] the “Human M1 Emin” value was 20%, the “human mAChR M1 antagonist activity, comparison in words” value (compound 61 versus compound 62, from Table 3) was “less human mAChR M1 antagonist activity than compound 62” and the IC50 was greater than 10000 nM.
